# Tests used:
# A431 malignant cells = experiment: Inhibition of cellular protein synthesis (35S methionine incorporation), A431; format: cell-based; conditions: Homo sapiens, A-431, 48 h, read-out: % of protein Synthesis Inhibition
# Method: (§1) The effect of these drugs was evaluated by the degree of inhibition of cellular protein synthesis. For this, we measured the level of incorporation of 35S methionine NEN) into newly synthesized proteins after a 48 hrs exposure to different concentrations of the drugs.
# (§2) Cells were plated on 1.5 cm Petri dishes at 50 percent to 60 percent of confluence before the addition of the toxin. […] Cell death consecutive to this addition was measured as follows: the cells were exposed for 1 hour at 37° C. in 500 μl DMEM low methionine medium (GIBCO) containing radioactive ^35 S met. The medium was then removed and the dishes were washed with PBS 9137 mM NaCl, […], […], 8.1 mM Na2 HPO4, 1.5 mM KH2 PO4, 0.9 mM CaCl2, 0.5 mM MgCl2, pH 7.2). These solutions were stored for beta counting. The cells were lysed with 1 ml 0.1 N NaOH and placed in a tube with 500 μl Trichloroacetic acid (TCA) 10 percent to precipitate the proteins. This mixture was filtered on GF/A filters (Whatman) to eliminate unreacted ^35 S-met. The filters were washed twice with 1 ml of 10 percent TCA and once with 100 percent ethanol. The filters were dried at 80° C. for 2 hours and subjected to beta counting in Econofluor (NEN) scintillation medium.
# WI38 (control) cells = experiment: Inhibition of cellular protein synthesis (35S methionine incorporation), WI38; format: cell-based; conditions: Homo sapiens, WI-38, 48 h
# Method: as §1, §2
# A431 tumors [1] = experiment: In vivo test of Conjugate VIII, A431 tumors in nude mice; conditions: for Initial Surface of the Tumor (A): before treatment; for Final Surface of the tumor (B): a week after last injection; for Tumor weight: tumors dissected at end of experiment
# Method: In the prior art, up to 10 mg/kg doses have been used in mice (S. Schwarz, et al., 1975, Cancer Chem. Rep., 6, 2, 107-114). The drug was injected either directly in the tumor or in the caudal vein 4 times at 3 days intervals. The measures were taken a week after the last injection.
# [2] = tested on: mixed culture of A431 and WI38 cells; experiment: Effect on mixed cultures of tumor (A431) and normal (WI38) cells; format: cell-based; conditions: 0.1 μg/ml (or equivalent free daunomycin), after 15 days
# Method: Cells were maintained as described in Example 4. The WI38 fibroblasts were first plated and the A431 squamous carcinoma cells were plated the next day. […]
# [3] = tested on: A431 squamous carcinoma cells; experiment: Comparative cytotoxic effects of free and conjugated daunomycin, Trypan Blue exclusion; format: cell-based, human; conditions: A431, 1 μg/ml daunomycin or equivalent in conjugate, 48 hours
# Method: All cells were maintained in Dulbecco's Modified Medium (DMEM), 10 percent foetal calf serum (FSC) (GIBCO), 2 percent penicillin-streptomycin (Gibco) and 1 percent fungizone (GIBCO) in 5 percent CO2. They were plated at 50 to 60 percent confluence 24 hours before the addition of the toxin. […] Four volumes of 0.2 percent (w/v) Trypan Blue in water was freshly mixed with 1 volume of a saline solution 4.25 percent (w/v) of NaCl in water. One volume of this solution was mixed with 1 volume of PBS on the cell monolayer or to 1 volume of cell suspension in PBS. Observation and scoring took place 48 hours after addition of the toxin (see FIG. 2a and 2b).
# A431 tumors [4] = experiment: In vivo test of Conjugate IX, A431 tumors in nude mice; conditions: 2 mg/kg daunomycin every 3 days over 9 days, caudal vein
# Source text: The in vivo tests reported in Example 8 were repeated using Conjugate IX.
# WI38 fibroblasts = experiment: Internalization of 125I-labelled EGF and Conjugate VIII in WI38 cells; format: cell-based; conditions: WI38, 6 hrs at 37° C.
# Method: (§3) The Conjugate VIII, radiolabeled with ^125 I on the EGF, was incubated with confluent cell cultures of A431 and WI38 cells for 6 hrs at 37° C. in solution A (4 parts DMEM and 1 part of 50 mM Tris, 100 mM NaCl and 0.1 percent BSA adjusted to pH 7.4). The cells were then washed four times with ice-cold PBS+1 mM CaCl2 and 1 mM MgCl2. Fifty percent trichloroacetic acid was added in a proportion of 1:5 to the pooled solution A and PBS, and the mixture was counted on a gamma counter. The cell membrane was destablized by treatment on ice with 200 mM acetic acid and 150 mM NaCl (solution B) for 6 minutes. The solution B was then removed and the cells washed twice with solution B. These pooled B solutions were assayed for ^125 I. This treatment releases the […] to the cell surface. The cells were then completely dissolved in 0.2 N NaOH. The radioactivity found there represented the internalized Conjugate VIII. In control experiments, using free EGF ^125 I, a proportion of the EGF is recycled to the medium, therefore lowering the intracellular EGF. The results on the internalization of ^125 I labelled EGF and Conjugate VIII in WI38 and A431 cell cultures are given in the following Table in terms of counts per min (background 30 cpm) for successively: EGF not integrated in the cell, EGF bound to the membrane, and EGF in the intra-cellular compartment. The percent of total cpm is given in brackets.
# [5] = tested on: A431 squamous carcinoma cells; experiment: Internalization of 125I-labelled EGF and Conjugate VIII in A431 cells; format: cell-based, human; conditions: A431, 6 hrs at 37° C.
# Method: as §3
# [6] = I.T., 0.1 mg/kg daunomycin 4 times at 3 days intervals
molecule,measurement,setting,value
"COc1cccc2c1C(=O)c1c(O)c3c(c(O)c1C2=O)C[C@@](O)(C(C)=O)C[C@@H]3O[C@H]1C[C@H](N)[C@H](O)[C@H](C)O1 [Daunomycin, daunomycin]",inhibition at 0.1 µg/mL,A431 malignant cells,30%
same,inhibition at 0.5 µg/mL,A431 malignant cells,68%
same,inhibition at 1 µg/mL,A431 malignant cells,97%
same,inhibition at 0.1 µg/mL,WI38 (control) cells,10%
same,inhibition at 0.5 µg/mL,WI38 (control) cells,46%
same,inhibition at 1 µg/mL,WI38 (control) cells,80%
same,Initial Surface of the Tumor (A),A431 tumors [1]; I.T. (intratumor),9
same,Growth coefficient (B/A),A431 tumors [1]; [6],18.7
same,Final Surface of the tumor (B),A431 tumors [1]; [6],170
same,Tumor weight,A431 tumors [1]; I.T.,1.178 g
same,Initial Surface of the Tumor (A),A431 tumors [1]; I.V. (caudal vein),30.5
same,Final Surface of the tumor (B),"A431 tumors [1]; I.V., 0.1 mg/kg daunomycin 4 times at 3 days intervals",500
same,Tumor weight,A431 tumors [1]; I.V.,6.789 g
same,Cells remaining in mixed culture,[2],"all cells, malignant and normal, had died after 15 days"
same,Cell death by Trypan Blue exclusion,[3],Exclusion of the dye from the cells demonstrates the viability thereof
same,Tumor diameter,A431 tumors [4]; day 0,10 mm
same,Tumor diameter,A431 tumors [4]; day 4,12 mm
same,Tumor diameter,A431 tumors [4]; day 7,15 mm
same,Tumor diameter,A431 tumors [4]; day 11,20 mm
same,Tumor diameter,A431 tumors [4]; day 14,21 mm
"EGF: Epidermal Growth Factor, a single polypeptide of 53 amino acids (SIGMA)","Intracellular, percent of total cpm",WI38 fibroblasts,7%
same,"Membrane bound, percent of total cpm",WI38 fibroblasts,0%
same,"Unbound, percent of total cpm",WI38 fibroblasts,93%
same,Intracellular,WI38 fibroblasts; background 30 cpm,67 cpm
same,Membrane bound,WI38 fibroblasts; background 30 cpm,29 cpm
same,Unbound (EGF not integrated in the cell),WI38 fibroblasts; background 30 cpm,530 cpm
same,"Intracellular, percent of total cpm",[5],14%
same,"Membrane, percent of total cpm",[5],0%
same,"Unbound, percent of total cpm",[5],86%
same,Intracellular,[5]; background 30 cpm,111 cpm
same,Membrane,[5]; background 30 cpm,31 cpm
same,Unbound (EGF not integrated in the cell),[5]; background 30 cpm,536 cpm
same,Tumor diameter,A431 tumors [4]; day 0,10 mm
same,Tumor diameter,A431 tumors [4]; day 4,13 mm
same,Tumor diameter,A431 tumors [4]; day 7,14 mm
same,Tumor diameter,A431 tumors [4]; day 11,17 mm
same,Tumor diameter,A431 tumors [4]; day 14,17 mm

# Source: patent US5087616A, “Cytotoxic drug conjugates and their delivery to tumor cells” (Battelle Memorial Institute, priority 1986, dated 1992)
